Laboratory results taken from patent publication US20240228463A1, “SODIUM CHANNEL INHIBITORS AND METHODS OF DESIGNING SAME” (Genentech, Inc., priority 2021, published 2024).

The compounds below were run against T1, hNaV1.7 (Homo sapiens, UniProt Q15858) (assay: Patch voltage clamp electrophysiology (EP), Syncropatch 384PE, Nav1.7 in CHO cells). Settings: holding potential −50 mV, inhibition based on 7.5 min compound incubation, read-out: hNaV1.7 EP_SP.
T1 construct: expressed in transfected cells
Type: cell-based
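Further: Nav1.7 stably expressed from cDNA in CHO cells, holding potential of −50 mV kept for the entire experiment.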

T1 sequence (Q15858 1-1977 isoform Q15858-3): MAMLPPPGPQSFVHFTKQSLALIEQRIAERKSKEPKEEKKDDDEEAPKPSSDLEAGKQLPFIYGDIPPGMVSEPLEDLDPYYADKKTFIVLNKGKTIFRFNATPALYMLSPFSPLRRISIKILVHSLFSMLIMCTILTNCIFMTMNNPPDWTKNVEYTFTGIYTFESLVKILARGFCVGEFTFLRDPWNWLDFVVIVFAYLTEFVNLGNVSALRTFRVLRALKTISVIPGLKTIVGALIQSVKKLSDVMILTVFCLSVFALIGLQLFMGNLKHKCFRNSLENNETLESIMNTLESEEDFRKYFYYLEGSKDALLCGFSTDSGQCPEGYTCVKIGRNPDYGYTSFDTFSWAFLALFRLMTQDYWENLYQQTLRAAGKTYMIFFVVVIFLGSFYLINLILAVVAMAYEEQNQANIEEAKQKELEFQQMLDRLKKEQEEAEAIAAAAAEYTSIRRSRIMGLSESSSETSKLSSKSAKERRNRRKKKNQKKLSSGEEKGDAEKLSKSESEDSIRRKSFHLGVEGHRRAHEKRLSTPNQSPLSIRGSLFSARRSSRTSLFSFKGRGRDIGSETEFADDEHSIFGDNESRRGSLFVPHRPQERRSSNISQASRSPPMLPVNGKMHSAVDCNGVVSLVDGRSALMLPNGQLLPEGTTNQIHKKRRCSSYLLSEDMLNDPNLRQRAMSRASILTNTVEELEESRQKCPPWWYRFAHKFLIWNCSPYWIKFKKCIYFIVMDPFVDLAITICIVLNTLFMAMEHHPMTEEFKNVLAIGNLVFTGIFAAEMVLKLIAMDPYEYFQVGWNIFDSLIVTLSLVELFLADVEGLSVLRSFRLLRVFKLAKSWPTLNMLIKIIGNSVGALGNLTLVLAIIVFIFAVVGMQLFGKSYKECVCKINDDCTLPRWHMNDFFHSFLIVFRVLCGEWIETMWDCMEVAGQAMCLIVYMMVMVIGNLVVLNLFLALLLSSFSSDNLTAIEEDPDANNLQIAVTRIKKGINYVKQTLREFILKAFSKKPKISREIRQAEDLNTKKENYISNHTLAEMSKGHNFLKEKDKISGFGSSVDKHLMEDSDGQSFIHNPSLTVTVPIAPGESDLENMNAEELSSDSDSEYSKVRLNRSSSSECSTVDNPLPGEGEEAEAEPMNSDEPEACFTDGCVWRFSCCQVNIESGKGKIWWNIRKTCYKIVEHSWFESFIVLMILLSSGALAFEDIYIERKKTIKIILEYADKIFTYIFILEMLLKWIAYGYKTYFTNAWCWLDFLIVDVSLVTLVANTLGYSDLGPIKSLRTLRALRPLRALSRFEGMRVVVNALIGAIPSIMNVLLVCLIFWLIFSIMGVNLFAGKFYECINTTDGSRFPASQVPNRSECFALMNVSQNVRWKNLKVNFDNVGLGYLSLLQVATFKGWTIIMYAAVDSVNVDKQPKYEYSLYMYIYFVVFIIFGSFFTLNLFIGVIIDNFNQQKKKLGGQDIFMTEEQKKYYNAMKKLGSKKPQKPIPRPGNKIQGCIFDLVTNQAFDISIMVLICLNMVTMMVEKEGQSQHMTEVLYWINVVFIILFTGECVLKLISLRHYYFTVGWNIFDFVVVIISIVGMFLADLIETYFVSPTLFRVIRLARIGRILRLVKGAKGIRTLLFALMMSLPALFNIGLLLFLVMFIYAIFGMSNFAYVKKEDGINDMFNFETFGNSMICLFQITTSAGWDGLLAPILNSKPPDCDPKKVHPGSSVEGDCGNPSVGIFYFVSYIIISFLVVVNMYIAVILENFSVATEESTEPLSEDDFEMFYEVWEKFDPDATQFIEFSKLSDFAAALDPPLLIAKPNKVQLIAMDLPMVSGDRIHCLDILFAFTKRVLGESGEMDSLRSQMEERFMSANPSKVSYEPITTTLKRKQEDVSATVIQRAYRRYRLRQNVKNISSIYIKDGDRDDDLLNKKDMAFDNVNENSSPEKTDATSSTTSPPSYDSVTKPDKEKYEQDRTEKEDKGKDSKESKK

Compound | IC50 [µM]
CCOc1ccc(S(=O)(=O)NC(=O)c2cc(Cl)c(OCC3CCCC3)cc2F)cn1 [Example 285, 5-chloro-4-(cyclopentylmethoxy)-N-((6-ethoxypyridin-3-yl)sulfonyl)-2-fluorobenzamide] | 0.35
Cn1ncnc1COc1ccc(S(=O)(=O)NC(=O)c2cc(Cl)c(OCC3CCCC3)cc2F)cc1 [Example 286, 5-chloro-4-(cyclopentylmethoxy)-2-fluoro-N-((4-((1-methyl-1H-1,2,4-triazol-5-yl)methoxy)phenyl)sulfonyl)benzamide] | 0.16
O=C(NS(=O)(=O)c1ccc(OCC(F)(F)F)cc1)c1cc(Cl)c(OCC2CCCC2)cc1F [Example 287, 5-chloro-4-(cyclopentylmethoxy)-2-fluoro-N-((4-(2,2,2-trifluoro-ethoxy)phenyl)sulfonyl)benzamide] | 0.25
O=C(NS(=O)(=O)c1ccc(Oc2ccc(Cl)cc2)cc1)c1cc(Cl)c(OCC2CCCC2)cc1F [Example 288, 5-chloro-N-((4-(4-chlorophenoxy)phenyl)sulfonyl)-4-(cyclopentylmethoxy)-2-fluorobenzamide] | 0.49
O=C(NS(=O)(=O)c1ccc2c(c1)OCCCO2)c1cc(Cl)c(OCC2CCCC2)cc1F [Example 289, 5-chloro-4-(cyclopentylmethoxy)-N-((3,4-dihydro-2H-benzo[b][1,4]dioxepin-7-yl)sulfonyl)-2-fluorobenzamide] | 0.71
O=C(NS(=O)(=O)c1ccc2ccccc2c1)c1cc(Cl)c(OCC2CCCC2)cc1F [Example 290, 5-chloro-4-(cyclopentylmethoxy)-2-fluoro-N-(naphthalen-2-ylsulfonyl)benzamide] | 0.76
COc1ccccc1-n1cc(S(=O)(=O)NC(=O)c2cc(Cl)c(OCC3CCCC3)cc2F)cn1 [Example 291, 5-chloro-4-(cyclopentylmethoxy)-2-fluoro-N-((1-(2-methoxyphenyl)-1H-pyrazol-4-yl)sulfonyl)benzamide] | 0.35
O=C(NS(=O)(=O)c1ccc(Cn2cncn2)cc1)c1cc(Cl)c(OCC2CCCC2)cc1F [Example 292, N-((4-((1H-1,2,4-triazol-1-yl)methyl)phenyl)sulfonyl)-5-chloro-4-(cyclopentylmethoxy)-2-fluorobenzamide] | 0.43
O=C(NS(=O)(=O)c1ccc(OC(F)(F)F)cc1Cl)c1cc(Cl)c(OCC2CCCC2)cc1F [Example 293, 5-chloro-N-((2-chloro-4-(trifluoromethoxy)phenyl)sulfonyl)-4-(cyclopentylmethoxy)-2-fluorobenzamide] | 0.85
O=C(NS(=O)(=O)c1ccc(OCc2ccccc2)cc1)c1cc(Cl)c(OCC2CCCC2)cc1F [Example 294, N-((4-(benzyloxy)phenyl)sulfonyl)-5-chloro-4-(cyclopentylmethoxy)-2-fluorobenzamide] | 0.13
O=C(NS(=O)(=O)c1ccc(OCc2ncccn2)cc1)c1cc(Cl)c(OCC2CCCC2)cc1F [Example 295, 5-chloro-4-(cyclopentylmethoxy)-2-fluoro-N-((4-(pyrimidin-2-ylmethoxy)phenyl)sulfonyl)benzamide] | 0.23
O=C(NS(=O)(=O)c1ccc(OCC2CNC2)cc1)c1cc(Cl)c(OCC2CCCC2)cc1F [Example 296, N-((4-(azetidin-3-ylmethoxy)phenyl)sulfonyl)-5-chloro-4-(cyclopentylmethoxy)-2-fluorobenzamide] | 0.28
CC(=O)N1CCc2cccc(COc3ccc(S(=O)(=O)NC(=O)c4cc(Cl)c(OCC5CCCC5)cc4F)cc3)c2C1 [Example 297, N-((4-((2-acetyl-1,2,3,4-tetrahydroisoquinolin-8-yl)methoxy)phenyl)sulfonyl)-5-chloro-4-(cyclopentylmethoxy)-2-fluorobenzamide] | 0.022
O=C(NS(=O)(=O)c1ccc(OCc2cccc(F)c2)cc1)c1cc(Cl)c(OCC2CCCC2)cc1F [Example 298, 5-chloro-4-(cyclopentylmethoxy)-2-fluoro-N-((4-((3-fluorobenzyl)oxy)-phenyl)sulfonyl)benzamide] | 0.22
Cn1cc(COc2ccc(S(=O)(=O)NC(=O)c3cc(Cl)c(OCC4CCCC4)cc3F)cc2)cn1 [Example 299, 5-chloro-4-(cyclopentylmethoxy)-2-fluoro-N-((4-((1-methyl-1H-pyrazol-4-yl)methoxy)phenyl)sulfonyl)benzamide] | 0.038
NCc1cccc(COc2ccc(S(=O)(=O)NC(=O)c3cc(Cl)c(OCC4CCCC4)cc3F)cc2)c1 [Example 300, N-((4-((3-(aminomethyl)benzyl)oxy)phenyl)sulfonyl)-5-chloro-4-(cyclopentylmethoxy)-2-fluorobenzamide] | 0.0032
O=C(NS(=O)(=O)c1ccc(OCc2ccccn2)cc1)c1cc(Cl)c(OCC2CCCC2)cc1F [Example 301, 5-chloro-4-(cyclopentylmethoxy)-2-fluoro-N-((4-(pyridin-2-ylmethoxy)phenyl)sulfonyl)benzamide] | 0.039
Cc1cc(C)cc(COc2ccc(S(=O)(=O)NC(=O)c3cc(Cl)c(OCC4CCCC4)cc3F)cc2)c1 [Example 303, 5-chloro-4-(cyclopentylmethoxy)-N-((4-((3,5-dimethyl-benzyl)oxy)phenyl)sulfonyl)-2-fluorobenzamide] | 0.26

Compound | IC50 [µM]
O=C(NS(=O)(=O)c1ccc(OCc2cncnc2)cc1)c1cc(Cl)c(OCC2CCCC2)cc1F [Example 304, 5-chloro-4-(cyclopentylmethoxy)-2-fluoro-N-((4-(pyrimidin-5-ylmethoxy)phenyl)sulfonyl)benzamide] | 0.57
O=C(NS(=O)(=O)c1ccc(OCC2CCCN2)cc1)c1cc(Cl)c(OCC2CCCC2)cc1F (stereo not drawn) [Example 305, 5-chloro-4-(cyclopentylmethoxy)-2-fluoro-N-((4-(pyrrolidin-2-ylmethoxy)phenyl)sulfonyl)benzamide] | 0.36
COc1cc(COc2ccc(S(=O)(=O)NC(=O)c3cc(Cl)c(OCC4CCCC4)cc3F)cc2)cc(OC)c1 [Example 306, 5-chloro-4-(cyclopentylmethoxy)-N-((4-((3,5-dimethoxy-benzyl)oxy)phenyl)sulfonyl)-2-fluorobenzamide] | 0.17
O=C(NS(=O)(=O)c1ccc(OCc2cc(F)cc(F)c2)cc1)c1cc(Cl)c(OCC2CCCC2)cc1F [Example 307, 5-chloro-4-(cyclopentylmethoxy)-N-((4-((3,5-difluorobenzyl)oxy)phenyl)sulfonyl)-2-fluorobenzamide] | 0.73
COc1cccc(COc2ccc(S(=O)(=O)NC(=O)c3cc(Cl)c(OCC4CCCC4)cc3F)cc2)c1 [Example 308, 5-chloro-4-(cyclopentylmethoxy)-2-fluoro-N-((4-((3-methoxybenzyl)oxy)phenyl)sulfonyl)benzamide] | 0.1
COc1ccc(COc2ccc(S(=O)(=O)NC(=O)c3cc(Cl)c(OCC4CCCC4)cc3F)cc2)cc1 [Example 309, 5-chloro-4-(cyclopentylmethoxy)-2-fluoro-N-((4-((4-methoxybenzyl)oxy)phenyl)sulfonyl)benzamide] | 0.12
O=C(NS(=O)(=O)c1ccc(OCc2cccnc2)cc1)c1cc(Cl)c(OCC2CCCC2)cc1F [Example 310, 5-chloro-4-(cyclopentylmethoxy)-2-fluoro-N-((4-(pyridin-3-ylmethoxy)phenyl)sulfonyl)benzamide] | 0.018
Cn1ccnc1COc1ccc(S(=O)(=O)NC(=O)c2cc(Cl)c(OCC3CCCC3)cc2F)cc1 [Example 312, 5-chloro-4-(cyclopentylmethoxy)-2-fluoro-N-((4-((1-methyl-1H-imidazol-2-yl)methoxy)phenyl)sulfonyl)benzamide] | 0.083
Cc1ccc(COc2ccc(S(=O)(=O)NC(=O)c3cc(Cl)c(OCC4CCCC4)cc3F)cc2)cc1 [Example 313, 5-chloro-4-(cyclopentylmethoxy)-2-fluoro-N-((4-((4-methylbenzyl)oxy)phenyl)sulfonyl)benzamide] | 0.14
NCCCOc1ccc(S(=O)(=O)NC(=O)c2cc(Cl)c(OCC3CCCC3)cc2F)cc1 [Example 314, N-((4-(3-aminopropoxy)phenyl)sulfonyl)-5-chloro-4-(cyclopentylmethoxy)-2-fluorobenzamide] | 0.31
Cn1nccc1COc1ccc(S(=O)(=O)NC(=O)c2cc(Cl)c(OCC3CCCC3)cc2F)cc1 [Example 315, 5-chloro-4-(cyclopentylmethoxy)-2-fluoro-N-((4-((1-methyl-1H-pyrazol-5-yl)methoxy)phenyl)sulfonyl)benzamide] | 0.047
Cn1cncc1COc1ccc(S(=O)(=O)NC(=O)c2cc(Cl)c(OCC3CCCC3)cc2F)cc1 [Example 316, 5-chloro-4-(cyclopentylmethoxy)-2-fluoro-N-((4-((1-methyl-1H-imidazol-5-yl)methoxy)phenyl)sulfonyl)benzamide] | 0.028
O=C(NS(=O)(=O)c1ccc(OCc2ccc(F)cc2F)cc1)c1cc(Cl)c(OCC2CCCC2)cc1F [Example 317, 5-chloro-4-(cyclopentylmethoxy)-N-((4-((2,4-difluorobenzyl)oxy)phenyl)sulfonyl)-2-fluorobenzamide] | 0.25
COc1ccccc1COc1ccc(S(=O)(=O)NC(=O)c2cc(Cl)c(OCC3CCCC3)cc2F)cc1 [Example 318, 5-chloro-4-(cyclopentylmethoxy)-2-fluoro-N-((4-((2-methoxybenzyl)oxy)phenyl)sulfonyl)benzamide] | 0.19
O=C(NS(=O)(=O)c1ccc(OCc2ccc(F)cc2)cc1)c1cc(Cl)c(OCC2CCCC2)cc1F [Example 319, 5-chloro-4-(cyclopentylmethoxy)-2-fluoro-N-((4-((4-fluorobenzyl)oxy)phenyl)sulfonyl)benzamide] | 0.11
O=C(NS(=O)(=O)N1CCC2CCNCC2C1)c1cc(Cl)c(OCC2CCCC2)cc1F (stereo not drawn) [Example 321, 5-chloro-4-(cyclopentylmethoxy)-2-fluoro-N-((octahydro-2,7-naphthyridin-2(1H)-yl)sulfonyl)benzamide] | 0.21
O=C(NS(=O)(=O)C1CCNC1)c1cc(Cl)c(OCC2CCCC2)cc1F (stereo not drawn) [Example 322, 5-chloro-4-(cyclopentylmethoxy)-2-fluoro-N-(pyrrolidin-3-ylsulfonyl)-benzamide] | 0.51
CN1CCC(S(=O)(=O)NC(=O)c2cc(Cl)c(OCC3CCCC3)cc2F)C1 (stereo not drawn) [Example 323, 5-chloro-4-(cyclopentylmethoxy)-2-fluoro-N-((1-methylpyrrolidin-3-yl)sulfonyl)benzamide] | 0.47
